Results as given in patent US20220177428A1, “SPECIFICALLY SUBSTITUTED 3-(2-ALKOXY-6-ALKYL-4-PROPINYLPHENYL)-3-PYRROLIN-2-ONES AND THEIR USE AS HERBICIDES” (Bayer Aktiengesellschaft, priority 2019, published 2022).

What was measured:
Format in all cases: in vivo
[1] = test system: Echinochloa crus-galli; test: Post-emergence herbicidal effect; details: 80 g ai/ha, visual score after about 3 weeks
Procedure: (§1) [table] Seeds of monocotyledonous and dicotyledonous weed and crop plants are laid out in sandy loam soil in wood-fibre pots, covered with soil and cultivated in a greenhouse under good growth conditions. 2 to 3 weeks after sowing, the test plants are treated at the one-leaf stage. The compounds of the invention, formulated in the form of wettable powders (WP) or as emulsion concentrates (EC), are then sprayed onto the green parts of the plants as aqueous suspension or emulsion at a water application rate equating to 600 to 800 L/ha with addition of 0.2% wetting agent. After the test plants have been left to stand in the greenhouse under optimal growth conditions for about 3 weeks, the action of the preparations is assessed visually in comparison to untreated controls (herbicidal action in percent (%): 100% activity=the plants have died, 0% activity=like control plants).

[2] = test system: Setaria viridis; test: Post-emergence herbicidal effect; details: 80 g ai/ha, visual score after about 3 weeks
Procedure: as §1

[3] = test system: Avena fatua; test: Post-emergence herbicidal effect; details: 80 g ai/ha, visual score after about 3 weeks
Procedure: as §1

[4] = test system: Alopecurus myosuroides; test: Post-emergence herbicidal effect; details: 80 g ai/ha, visual score after about 3 weeks
Procedure: as §1

[5] = test system: Digitaria sanguinalis; test: Post-emergence herbicidal effect; details: 80 g ai/ha, visual score after about 3 weeks
Procedure: as §1

[6] = test system: Lolium rigidum; test: Post-emergence herbicidal effect; details: 80 g ai/ha, visual score after about 3 weeks
Procedure: as §1

[7] = test system: Echinochloa crus-galli; test: Pre-emergence herbicidal effect; details: visual score after 3 weeks
Excerpt: (§2) Seeds of monocotyledonous and dicotyledonous weed plants and crop plants are laid out in sandy loam soil in wood-fibre pots and covered with soil. The compounds of the invention, formulated in the form of wettable powders (WP) or as emulsion concentrates (EC), are then applied to the surface of the covering soil as aqueous suspension or emulsion at a water application rate equating to 600 to 800 L/ha with addition of 0.2% wetting agent. After the treatment, the pots are placed in a greenhouse and kept under good growth conditions for the trial plants. The damage to the test plants is scored visually after a test period of 3 weeks by comparison with untreated controls (herbicidal activity in percent (%): 100% activity=the plants have died, 0% activity=like control plants). [table]

[8] = test system: Viola tricolor; test: Pre-emergence herbicidal effect; details: visual score after 3 weeks
Excerpt: as §2

[9] = test system: Setaria viridis; test: Pre-emergence herbicidal effect; details: visual score after 3 weeks
Excerpt: as §2

[10] = test system: Avena fatua; test: Pre-emergence herbicidal effect; details: visual score after 3 weeks
Excerpt: as §2

[11] = test system: Amaranthus retroflexus; test: Pre-emergence herbicidal effect; details: 320 g ai/ha, visual score after 3 weeks
Excerpt: as §2

[12] = test system: Alopecurus myosuroides; test: Pre-emergence herbicidal effect; details: visual score after 3 weeks
Excerpt: as §2

[13] = test system: Digitaria sanguinalis; test: Pre-emergence herbicidal effect; details: visual score after 3 weeks
Excerpt: as §2

[14] = test system: Abutylon threophrasti; test: Pre-emergence herbicidal effect; details: 320 g ai/ha, visual score after 3 weeks
Excerpt: as §2

[15] = test system: Lolium rigidum; test: Pre-emergence herbicidal effect; details: visual score after 3 weeks
Excerpt: as §2

[16] = test system: Matricaria inodora; test: Pre-emergence herbicidal effect; details: 320 g ai/ha, visual score after 3 weeks
Excerpt: as §2

[17] = test system: Veronica persica; test: Pre-emergence herbicidal effect; details: 320 g ai/ha, visual score after 3 weeks
Excerpt: as §2

[18] = test system: Hordeum murinum; test: Post-emergence herbicidal effect; details: 80 g ai/ha, visual score after about 3 weeks
Procedure: as §1

| Structure (SMILES) | Post-emergence activity ECHCG [1] [%] | Post-emergence activity SETVI [2] [%] | Post-emergence activity AVEFA [3] [%] | Post-emergence activity ALOMY [4] [%] | Post-emergence activity DIGSA [5] [%] | Post-emergence activity LOLRI [6] [%] | Pre-emergence activity ECHCG ([7]; 320 g ai/ha) [%] | Pre-emergence activity VIOTR ([8]; 320 g ai/ha) [%] | Pre-emergence activity SETVI ([9]; 80 g ai/ha) [%] | Pre-emergence activity SETVI ([9]; 320 g ai/ha) [%] | Pre-emergence activity AVEFA ([10]; 80 g ai/ha) [%] | Pre-emergence activity AVEFA ([10]; 320 g ai/ha) [%] | Pre-emergence activity AMARE [11] [%] | Pre-emergence activity ALOMY ([12]; 80 g ai/ha) [%] | Pre-emergence activity ALOMY ([12]; 320 g ai/ha) [%] | Pre-emergence activity DIGSA ([13]; 80 g ai/ha) [%] | Pre-emergence activity DIGSA ([13]; 320 g ai/ha) [%] | Pre-emergence activity LOLRI ([15]; 80 g ai/ha) [%] | Pre-emergence activity ECHCG ([7]; 80 g ai/ha) [%] | Pre-emergence activity VIOTR ([8]; 80 g ai/ha) [%] | also measured |
| --- | --- | --- | --- | --- | --- | --- | --- | --- | --- | --- | --- | --- | --- | --- | --- | --- | --- | --- | --- | --- | --- |
| CC#Cc1cc(C)c(C2=C(O)C3(CCC(COC)CC3)NC2=O)c(OC)c1 (stereo not shown) [Example D6] | 100 | 100 | 100 | 100 | 100 | 100 | 100 | 100 | 100 | 100 | 80 | 100 | 100 | 80 | 100 | 100 | 100 | 100 |  |  | Pre-emergence activity ABUTH [14]: 100%; Pre-emergence activity LOLRI ([15]; 320 g ai/ha): 100%; Pre-emergence activity MATIN [16]: 90%; Pre-emergence activity VERPE [17]: 100% |
| C=CCOC1CCC2(CC1)NC(=O)C(c1c(C)cc(C#CC)cc1OC)=C2OC(=O)OCC (stereo not shown) [Example Q4] | 100 | 100 | 90 | 100 | 100 | 100 |  |  | 100 |  | 90 |  |  | 100 |  | 100 |  | 100 | 100 | 100 | Post-emergence activity HORMU [18]: 100% |
| CC#Cc1cc(C)c(C2=C(O)C3(CCC(OCCC)CC3)NC2=O)c(OC)c1 (stereo not shown) [Example D2] | 100 | 100 | 100 | 100 | 100 | 100 | 100 | 100 | 100 | 100 |  | 100 | 100 | 80 | 100 | 100 | 100 | 90 | 80 | 100 | Pre-emergence activity ABUTH [14]: 100%; Pre-emergence activity LOLRI ([15]; 320 g ai/ha): 100%; Pre-emergence activity MATIN [16]: 100%; Pre-emergence activity VERPE [17]: 80% |
| CC#Cc1cc(C)c(C2=C(OC(=O)OCC)C3(CCC(OCCC)CC3)NC2=O)c(OC)c1 (stereo not shown) [Example Q2] | 100 | 100 | 90 | 100 | 100 | 100 | 100 | 100 | 100 | 100 | 80 | 100 | 100 | 100 | 100 | 100 | 100 | 100 | 100 | 100 | Pre-emergence activity ABUTH [14]: 90%; Pre-emergence activity LOLRI ([15]; 320 g ai/ha): 100%; Pre-emergence activity MATIN [16]: 100%; Pre-emergence activity VERPE [17]: 90% |
| CC#Cc1cc(C)c(C2=C(OC(=O)OCC)C3(CCC(COC)CC3)NC2=O)c(OC)c1 (stereo not shown) [Example Q8] | 100 | 100 | 100 | 100 | 100 | 100 | 100 | 100 | 100 | 100 | 80 | 100 | 100 | 100 | 100 | 100 | 100 | 100 | 100 | 100 | Pre-emergence activity ABUTH [14]: 100%; Pre-emergence activity LOLRI ([15]; 320 g ai/ha): 100%; Pre-emergence activity MATIN [16]: 100%; Pre-emergence activity VERPE [17]: 100% |
| CC#Cc1cc(C)c(C2=C(O)C3(CCC(OC(C)C)CC3)NC2=O)c(OC)c1 (stereo not shown) [Example D3] | 100 | 100 | 100 | 100 | 100 | 100 |  |  | 100 |  | 80 |  |  | 100 |  | 100 |  | 100 | 100 | 100 | Post-emergence activity HORMU [18]: 80% |
